Here are results for one molecule from PMC7105723, “A Ganoderma-Derived Compound Exerts Inhibitory Effect Through Formyl Peptide Receptor 2” (Frontiers in Pharmacology, 2020).

The assay deals with T1, formyl peptide receptor 2 (FPR2) (Homo sapiens, UniProt P25090).
T1 construct: human FPR2 stably expressed in RBL-2H3 cells; FPR2-ICL3-FlAsH/C-terminal ECFP in HEK-293 cells for FRET
T1 sequence (P25090 1-351): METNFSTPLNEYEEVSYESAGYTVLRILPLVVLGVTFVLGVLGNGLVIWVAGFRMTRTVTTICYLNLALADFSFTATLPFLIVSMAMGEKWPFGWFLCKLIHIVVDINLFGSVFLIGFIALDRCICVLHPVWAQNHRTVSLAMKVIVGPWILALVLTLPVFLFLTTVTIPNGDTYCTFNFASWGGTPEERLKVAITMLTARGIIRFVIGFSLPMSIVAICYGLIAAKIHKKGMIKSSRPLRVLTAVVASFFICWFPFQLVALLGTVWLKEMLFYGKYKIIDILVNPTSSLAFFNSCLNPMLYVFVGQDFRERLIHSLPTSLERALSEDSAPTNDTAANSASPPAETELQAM
The assay can be described thus: competition with WK(FITC)YMVm on RBL-FPR2 cells by flow cytometry (partial); FlAsH FRET conformational change. The assay is classed as cell-based. On the technique in general: In flow cytometry, cells or beads pass a laser one at a time.

For `CC(C)=CCC/C(C)=C/CC/C(=C/Cc1cc(O)ccc1O)CO` [C18, ganomycin F], the IC50 (in general, the concentration that inhibits the measured activity by half) came to 3.2 µM.
